The subject of this experiment is amyloid β production in transfected H4 (human neuroglioma) cells stably expressing APP constructs. Kind of experiment: In vitro cell-based assay of inhibitors of amyloid β production (ELISA). The following applies: amyloid β in medium by ELISA. The method, boiled down: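 Sandwich ELISA read-out: Aβ in conditioned medium captured via C-terminal epitope mAb, detected with N-terminus-specific rabbit polyclonal, quantified from a standard curve. Compounds 10-100 μM, ~16 h exposure. Active = ≥50% inhibition vs control without significant cytotoxicity; dose-response follows.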

The mark [1] stands for this setting: transfected H4 cells stably expressing APP, approximately 16 hours incubation, Table B, read-out: ACTIVITY (IC50, inhibition of amyloid β production).
[2] abbreviates: transfected H4 cells stably expressing APP, approx. 16 h incubation, read-out: ACTIVITY (IC50, inhibition of amyloid β production).
Where [3] appears, read: Homo sapiens, 16 h, transfected H4 cells stably expressing APP, approximately 16 hours incubation, read-out: ACTIVITY (IC50, inhibition of amyloid β production).
The mark [4] stands for this setting: Homo sapiens, 16 h, transfected H4 cells stably expressing APP constructs, approximately 16 hours incubation, read-out: ACTIVITY (IC50, inhibition of amyloid β production).
Where [5] appears, read: transfected H4 cells stably expressing APP constructs, approximately 16 hours incubation, read-out: ACTIVITY (IC50, inhibition of amyloid β production).
[6] abbreviates: Homo sapiens, 16 h, transfected H4 cells expressing APP, approximately 16 hours incubation, read-out: ACTIVITY (IC50, inhibition of amyloid β production).
Setting [7] is: transfected H4 cells stably expressing APP, approximately 16 hours incubation, read-out: ACTIVITY (IC50, inhibition of amyloid β production).

Our source for the IC50 values is patent US6967196B1, “Sulfonamide compounds and uses thereof” (Bristol-Myers Squibb Company, priority 1999, dated 2005).

Where a name gives a salt, the structure may show the parent alone. Read-outs that look alike come from different tables or passages of the source.

As to `CNC(=O)CCCc1cc(F)ccc1[C@@H](C)N(c1cc(F)ccc1F)S(=O)(=O)c1ccc(Cl)cc1` [Example 498, 4-[2-((1R)-1-{[(4-chlorophenyl)sulfonyl]-2,5-difluoroanilino}ethyl)-5-fluorophenyl]-N-methylbutanamide], the IC50 under setting [1] lay within 100 to 500 nM.
With `CC(c1ccccc1OCCN(C)C(=O)C(F)(F)C(F)(F)C(F)(F)F)N(c1cc(F)ccc1F)S(=O)(=O)c1ccc(Cl)cc1` (stereo not drawn) [Example 796, N-{2-[2-(1-{[(4-chlorophenyl)sulfonyl]-2,5-difluoroanilino}ethyl)phenoxy]ethyl}-2,2,3,3,4,4,4-heptafluoro-N-methylbutanamide], the IC50 under setting [2] fell in the range of 100 to 500 nM.
Consider `O=S(=O)(c1ccc(Cl)cc1)N(Cc1ccccc1OCCCN1CCCCC1)C1CCCC1` [Example 835, 4-chloro-N-cyclopentyl-N-{2-[3-(1-piperidinyl)propoxy]benzyl}benzenesulfonamide hydrochloride], for which, under setting [3], the IC50 lay within 100 to 500 nM.
In the case of `C[C@H](CCCS(=O)(=O)N1CCC1)N(c1cc(F)ccc1F)S(=O)(=O)c1ccc(Cl)cc1` [Example 1200, 4-chloro-N-[2,5-difluorophenyl]-N-[4-[(1-azetidinyl)sulfonyl]-1(R)-methylbutyl]benzenesulfonamide], the IC50 under setting [4] is at most 25 nM.
Consider `O=S(=O)(c1ccc(Cl)cc1)N(Cc1ccccc1OCCCNC1CCCCC1)c1ccccc1` [Example 996, 4-chloro-N-{2-[3-(cyclohexylamino)propoxy]benzyl}-N-phenylbenzenesulfonamide hydrochloride], for which, under setting [3], the IC50 is above 500 nM.
Take `C[C@H](c1ccccc1OCCCn1ccnc1)N(c1cccc(F)c1)S(=O)(=O)c1ccc(Cl)cc1` [Example 895, 4-chloro-N-(3-fluorophenyl)-N-((1R)-1-{2-[3-(1H-imidazol-1-yl)propoxy]phenyl}ethyl)benzenesulfonamide hydrochloride]: the IC50 under setting [3] was above 500 nM.
`C[C@H](CCCC(=O)OC(C)(C)C)N(c1cc(Cl)ccc1Cl)S(=O)(=O)c1ccc(Cl)cc1` [Example 35, 1,1-dimethylethyl(5R)-5-[(2,5-dichlorophenyl)-[(4-chlorophenyl)sulfonyl]-amino]hexanoate]: the IC50 (Table B, transfected H4 cells stably expressing APP, approximately 16 hours incubation, read-out: ACTIVITY (inhibitory concentration IC50, inhibition of amyloid β production)) is at most 25 nM.
Regarding `CC(C)SCCC[C@@H](C)N(c1cc(Cl)ccc1CO)S(=O)(=O)c1ccc(Cl)cc1` [Example 1223], the IC50 under setting [5] was at most 25 nM.
On to `CC(C)CC(=O)N(C)CCCOc1ccccc1CN(c1cc(F)ccc1F)S(=O)(=O)c1ccc(Cl)cc1` [Example 791, N-{3-[2-({[(4-chlorophenyl)sulfonyl]-2,5-difluoroanilino}methyl)phenoxy]propyl}-N,3-dimethylbutamide], for which the IC50 under setting [2] is 100 to 500 nM.
Consider `C[C@H](CCCN(CCCn1ccnc1)CC1CC1)N(c1cc(Cl)ccc1Cl)S(=O)(=O)c1ccc(Cl)cc1` [Example 1135], for which, under setting [5], the IC50 lay in the range of 100 to 500 nM.
For the molecule `O=S(=O)(c1ccc(Cl)cc1)N(Cc1ccccc1OCCC[S+]([O-])c1ccccc1)c1cc(F)ccc1F` (stereo not drawn) [Example 702, 4-chloro-N-(2,5-difluorophenyl)-N-{2-[3-(phenylsulfinyl)propoxy]benzyl}benzenesulfonamide], the IC50 (Homo sapiens, 16 h, transfected H4 cells stably expressing APP, approx. 16 h incubation, read-out: ACTIVITY (IC50, inhibition of amyloid β production)) lay within 100 to 500 nM.
For `CCSCCC[C@@H](C)N(c1cc(Cl)ccc1Cl)S(=O)(=O)c1ccc(Cl)cc1` [Example 1183, 4-chloro-N-[2,5-dichlorophenyl]-N-[1(R)-methyl-(4-ethylthio)butyl]benzenesulfonamide], the IC50 under setting [5] was at most 25 nM.
For `Cc1ccccc1N(Cc1ccccc1OCCCN1CCCCC1)S(=O)(=O)c1ccc(Cl)cc1` [Example 875, 4-chloro-N-(2-methylphenyl)-N-{2-[3-(1-piperidinyl)propoxy]benzyl}benzenesulfonamide hydrochloride], the IC50 under setting [3] lay in the range of 100 to 500 nM.
For `CC1CCC(NC(=O)[C@@H](C)N(c2cc(Cl)ccc2F)S(=O)(=O)c2ccc(Cl)cc2)CC1` (stereo partly drawn) [Example 1342], the IC50 under setting [6] lay in the range of 100 to 500 nM.
Consider `CSC1CCN(CC[C@@H](C)N(c2cc(Cl)ccc2Cl)S(=O)(=O)c2ccc(Cl)cc2)C1` (stereo partly drawn) [Example 1147, 4-chloro-N-(2,5-dichlorophenyl)-N-[3-[(3-methylthio)-1-pyrrolidinyl]-1(R)-methylpropyl]benzenesulfonamide], for which the IC50 under setting [5] was 100 to 500 nM.
As for `C[C@H](CCCS(C)(=O)=O)N(c1cc(Cl)ccc1F)S(=O)(=O)c1ccc(Cl)cc1` [Example 1165, 4-chloro-N-[5-chloro-2-fluorophenyl]-N-[1(R)-methyl-(4-methylsulfonyl)butyl]benzenesulfonamide], under setting [5], the IC50 was at most 25 nM.
Turning to `C[C@H](C(=O)NCCc1ccncc1)N(c1cc(Cl)ccc1F)S(=O)(=O)c1ccc(Cl)cc1` [Example 1304], the IC50 under setting [6] lay in the range of 100 to 500 nM.
On to “N-{3-[2-(1-{3-[2-(1-{[(4-chlorophenyl)sulfonyl]-2,5-difluoroanilino}ethyl)phenoxy]butyl}-2-cyclohexyl-N-methylacetamide [Example 686]”, for which, under setting [2], the IC50 is 100 to 500 nM.
Turning to `CCC[C@@H](C)N(Cc1ccccc1OCCCN1CCCCC1)S(=O)(=O)c1ccc(Cl)cc1` [Example 980, 4-chloro-N-[(1R)-1-methylbutyl]-N-{2-[3-(1-piperidinyl)propoxy]benzyl}benzenesulfonamide hydrochloride], the IC50 (transfected H4 cells stably expressing APP, approximately 16 hours incubation, hydrochloride, read-out: ACTIVITY (IC50, inhibition of amyloid β production)) was above 500 nM.
Take `CC(C)CNC(=O)OCc1cc(F)ccc1[C@@H](C)N(c1cc(F)ccc1F)S(=O)(=O)c1ccc(Cl)cc1` [Example 398, 2-((1R)-1-{[(4-chlorophenyl)sulfonyl]-2,5-difluoroanilino}ethyl)-5-fluorobenzyl isobutylcarbamate]: the IC50 (Homo sapiens, 16 h, transfected H4 cells stably expressing APP, approximately 16 hours incubation, Table B, read-out: ACTIVITY (IC50, inhibition of amyloid β production)) lay in the range of 50 to 100 nM.
Consider `C[C@H](c1ccccc1OCCCN(C)C(=O)c1cccnc1)N(c1cc(F)ccc1F)S(=O)(=O)c1ccc(Cl)cc1` [Example 363, N-{3-[2-((1R)-1-{[(4-chlorophenyl)sulfonyl]-2,5-difluoroanilino}ethyl)phenoxy]propyl}-N-methylnicotinamide Hydrochloride], for which, under setting [1], the IC50 lay within 50 to 100 nM.
With `O=[N+]([O-])c1ccc(SCCCOc2ccccc2CN(c2cc(F)ccc2F)S(=O)(=O)c2ccc(Cl)cc2)cc1` [Example 997, 4-chloro-N-(2,5-difluorophenyl)-N-(2-{3-[(4-nitrophenyl)sulfanyl]propoxy}benzyl)benzenesulfonamide], under setting [3], the IC50 was above 500 nM.
Consider `CONC(=O)CCCOc1ccccc1C(C)N(c1cc(F)ccc1F)S(=O)(=O)c1ccc(Cl)cc1` (stereo not drawn) [Example 379, 4-[2-(1-{[(4-Chlorophenyl)sulfonyl]-2,5-difluoroanilino}ethyl)phenoxy]-N-methoxybutanamide], for which, under setting [1], the IC50 fell in the range of 50 to 100 nM.
Consider `CCSCC[C@@H](C)N(c1cc(Cl)ccc1Cl)S(=O)(=O)c1ccc(Cl)cc1` [Example 1189, 4-chloro-N-[2,5-dichlorophenyl]-N-[1(R)-methyl-(3-ethylthio)propyl]benzenesulfonamide], for which the IC50 under setting [5] was 100 to 500 nM.
In the case of `O=S(=O)(c1ccc(Cl)cc1)N(Cc1ccccc1OCCC[N+]1([O-])CCCCC1)c1ccccc1` [Example 883], the IC50 under setting [7] is above 500 nM.
Same read-out and setting: to “N-{3-[2-(1-{[(4-chlorophenyl)sulfonyl]-2,5-difluoroanilino}ethyl)phenoxy]propyl}-3,5-difluorobenzamide [Example 815]” belongs 100 to 500 nM.
Turning to `C[C@H](CCCNC(=O)c1ccccc1)N(c1cc(Cl)ccc1Cl)S(=O)(=O)c1ccc(Cl)cc1` [Example 1149, 4-chloro-N-(2,5-dichlorophenyl)-N-[4-[[(phenyl)carbonyl]amino]-1-methylbutyl]benzenesulfonamide], the IC50 under setting [4] was 100 to 500 nM.
